{"source": "patent US20260102472A1", "about": "“SEMAGLUTIDE IN MEDICAL THERAPY” (Novo Nordisk A/S, priority 2023, published 2026)", "key": {"[1]": {"test_system": "human subjects with obesity-related heart failure with preserved ejection fraction", "assay": "Randomised, double-blind, placebo-controlled clinical trial of semaglutide in obesity-related HFpEF (Example 1)", "format": "in vivo", "settings": "for Time to first HF event from randomisation leading to either hospitalisation or an urgent visit, Hazard ratio: Semaglutide 2.4 mg/placebo; for Observed KCCQ-CSS mean change from baseline: 2.4 mg once weekly subcutaneously", "text": "The Kansas City Cardiomyopathy Questionnaire (KCCQ) is a disease-specific health status instrument composed of 23 items that quantify the domains of physical limitation, symptoms, self-efficacy, social limitation, and health-related quality of life limitation from heart failure (available via cvoutcomes.org). The questions of the KCCQ are as published in the appendix of Green et al., JACC 2000; 35 (5): 1245-55:\nThe Kansas City Cardiomyopathy Questionnaire clinical summary score (KCCQ-CSS) is used for interpretation of the KCCQ and scores range from 0 to 100 where higher scores indicate better function. KCCQ-CSS is calculated as the mean of the available summary scores Physical Limitation Score and Total Symptom Score from the KCCQ. […] “Total Symptom Score” is calculated as the mean of the available summary scores Symptom Frequency Score and Symptom Burden Score. “Symptom Frequency Score” is calculated, if answer to at least two of Questions 3, 5, 7 and 9 are not missing, as 100*(mean of S3, S5, S7 and S9 answered), where S3=[(Question 3)−1]/4, S5=[(Question 5)−1]/6, S7=[(Question 7)−1]/6, and S9=[(Question 9)−1]/4; answers to Question 3 are scored as follows: Every morning=1, 3 or more times a week but not every day=2, 1-2 times a week=3, Less than once a week=4, Never over the past 2 weeks=5; answers to Questions 5 and 7 are scored as follows: All of the time=1, Several times a day=2, At least once a day=3, 3 or more times a week but not every day=4, 1-2 times a week=5, Less than once a week=6, or Never over the past 2 weeks=7; and answers to Question 9 are scored as follows: Every night=1, 3 or more times a week but not every day=2, 1-2 times a week=3, Less than once a week=4, or Never over the past 2 weeks=5. “Symptom Burden Score” is calculated, if answer to at least one of Questions 4, 6 and 8 is not missing, as 100*[(mean of Questions 4, 6 and 8 answered)−1]/4 where answers are scored as follows: Extremely bothersome=1, Quite a bit bothersome=2, Moderately bothersome=3, Slightly bothersome=4, Not at all bothersome=5, or I've had no swelling/fatigue/shortness of breath=5. The term “mean of questions answered” as used herein refers to that for a scale with n in questions where the subject must answer m to score the scale, but the subject answers only n-i, where n-i>=m, then the mean of those questions is calculated as (sum of answers to those n-i questions)/(n-i).\nThe six minute walk test (6MWT) is a determination of the distance a subject is able to walk over a period of six minutes where the subject traverses, at its own pace and resting as needed, back and forth along a marked walkway of 20 meters with the goal of walking as far as possible without running. The distance obtained from 6MWT is referred to as the six minute walk distance (6MWD). The 6MWT is a direct and timed measure of walking ability, which is technically simple and reproducible.\nHeart failure exists in different degrees of severity. The most commonly used classification system of heart failure is the New York Heart Association Functional Classification (also referred to as “NYHA”). NYHA categorises subjects in one of four classes I-IV (Table A), based on their degree of limitation during physical activity, and optionally an additional subgroup A-D based on objective assessments, for further details see The Criteria Committee of the New York Heart Association. Nomenclature and Criteria for Diagnosis of Diseases of the Heart and Great Vessels. 9th ed. Boston, Mass: Little, Brown & Co; 1994:253-256.\nA randomised, double-blind, international multicentre, placebo-controlled clinical trial with semaglutide was carried out with 529 human subjects with obesity-related heart failure with preserved ejection fraction. Key inclusion criteria were body mass index (BMI) of at least 30 kg/m^2, NYHA Class II-IV, and LVEF of at least 45% at time of screening for the clinical trial. […]"}, "[2]": {"test_system": "hospitalisation for heart failure", "settings": "0.5 mg or 1.0 mg subcutaneous once weekly, compared to placebo; cited from earlier work"}, "[3]": {"settings": "pair-wise comparisons vs. placebo, 2.4 mg"}, "[4]": {"settings": "week 52, 2.4 mg once weekly vs. placebo"}, "[5]": {"settings": "week 52, 2.4 mg once weekly vs. placebo, listed as semaglutide"}, "[6]": {"settings": "week 52, 2.4 mg once weekly, ANCOVA estimate"}}}
{"substance": "N-epsilon26-[2-(2-{2-[2-(2-{2-[(S)-4-Carboxy-4-(17-carboxyheptadecanoyl-amino) butyrylamino]ethoxy}ethoxy) acetylamino]ethoxy}ethoxy) acetyl] [Aib8,Arg34] GLP-1-(7-37) [Semaglutide]", "values": [{"measurement": "Inflammation", "setting": "[1]; HFpEF and obesity, no data given", "value": "reduced inflammation"}, {"measurement": "Time to first HF event from randomisation leading to either hospitalisation or an urgent visit, Hazard ratio", "setting": "[1]", "value": 0.08}, {"measurement": "Time to first HF event from randomisation leading to either hospitalisation or an urgent visit, Hazard ratio", "setting": "[1]; listed as semaglutide", "value": "risk of experiencing a heart failure event was less"}, {"measurement": "Patients improved or with no change in NYHA class compared with placebo", "setting": "[1]; baseline to 52 weeks", "value": "more patients treated with semaglutide improved or observed no change in NYHA class"}, {"measurement": "More wins on semaglutide as compared to placebo", "setting": "[1]; hierarchical composite endpoint", "value": 72, "unit": "%"}, {"measurement": "Hierarchical composite endpoint, Loss: All-cause death", "setting": "[1]; [3]", "value": 1.1, "unit": "%"}, {"measurement": "Hierarchical composite endpoint, Loss: Change in 6MWD ≥30 meters difference", "setting": "[1]; [3]", "value": 3.7, "unit": "%"}, {"measurement": "Hierarchical composite endpoint, Loss: Change in KCCQ-CSS ≥5 points difference", "setting": "[1]; [3]", "value": 7.0, "unit": "%"}, {"measurement": "Hierarchical composite endpoint, Loss: Change in KCCQ-CSS ≥10 points difference", "setting": "[1]; [3]", "value": 5.6, "unit": "%"}, {"measurement": "Hierarchical composite endpoint, Loss: Change in KCCQ-CSS ≥15 points difference", "setting": "[1]; [3]", "value": 17.5, "unit": "%"}, {"measurement": "Hierarchical composite endpoint, Loss: Number of HF events", "setting": "[1]; [3]", "value": 0.0, "unit": "%"}, {"measurement": "Hierarchical composite endpoint, Loss: Time-to-first HF event", "setting": "[1]; [3]", "value": 0.0, "unit": "%"}, {"measurement": "Hierarchical composite endpoint, Loss: Total", "setting": "[1]; [3]", "value": 34.9, "unit": "%"}, {"measurement": "Hierarchical composite endpoint, Proportion of ties", "setting": "[1]; [3]", "value": "Proportion of ties: 5.1%."}, {"measurement": "Hierarchical composite endpoint, Wins: All-cause death", "setting": "[1]; [3]", "value": 1.5, "unit": "%"}, {"measurement": "Hierarchical composite endpoint, Wins: Change in 6MWD ≥30 meters difference", "setting": "[1]; [3]", "value": 6.3, "unit": "%"}, {"measurement": "Hierarchical composite endpoint, Wins: Change in KCCQ-CSS ≥5 points difference", "setting": "[1]; [3]", "value": 8.2, "unit": "%"}, {"measurement": "Hierarchical composite endpoint, Wins: Change in KCCQ-CSS ≥10 points difference", "setting": "[1]; [3]", "value": 7.2, "unit": "%"}, {"measurement": "Hierarchical composite endpoint, Wins: Change in KCCQ-CSS ≥15 points difference", "setting": "[1]; [3]", "value": 33.7, "unit": "%"}, {"measurement": "Hierarchical composite endpoint, Wins: Number of HF events", "setting": "[1]; [3]", "value": 3.3, "unit": "%"}, {"measurement": "Hierarchical composite endpoint, Wins: Time-to-first HF event", "setting": "[1]; [3]", "value": 0.0, "unit": "%"}, {"measurement": "Hierarchical composite endpoint, Wins: Total", "setting": "[1]; [3]", "value": 60.1, "unit": "%"}, {"measurement": "Observed body weight (%) mean change from baseline", "setting": "[1]; week 0, 2.4 mg once weekly", "value": 0, "unit": "%"}, {"measurement": "Observed six minutes walk distance mean change from baseline", "setting": "[1]; week 0, 2.4 mg once weekly", "value": 0, "unit": "meters"}, {"measurement": "Observed KCCQ-CSS mean change from baseline", "setting": "[1]; week 0", "value": 0}, {"measurement": "Observed body weight (%) mean change from baseline", "setting": "[1]; week 4, dose escalation to 2.4 mg once weekly", "value": "−2.1", "unit": "%"}, {"measurement": "Observed body weight (%) mean change from baseline", "setting": "[1]; week 8, dose escalation to 2.4 mg once weekly", "value": "−3.2", "unit": "%"}, {"measurement": "Observed body weight (%) mean change from baseline", "setting": "[1]; week 12, dose escalation to 2.4 mg once weekly", "value": "−5.0", "unit": "%"}, {"measurement": "Observed body weight (%) mean change from baseline", "setting": "[1]; week 16, dose escalation to 2.4 mg once weekly", "value": "−6.6", "unit": "%"}, {"measurement": "Observed body weight (%) mean change from baseline", "setting": "[1]; week 20, 2.4 mg once weekly", "value": "−7.8", "unit": "%"}, {"measurement": "Observed six minutes walk distance mean change from baseline", "setting": "[1]; week 20, 2.4 mg once weekly", "value": 14.3, "unit": "meters"}, {"measurement": "Observed KCCQ-CSS mean change from baseline", "setting": "[1]; week 20", "value": 11.0}, {"measurement": "Observed body weight (%) mean change from baseline", "setting": "[1]; week 28, 2.4 mg once weekly", "value": "−10.2", "unit": "%"}, {"measurement": "Observed body weight (%) mean change from baseline", "setting": "[1]; week 36, 2.4 mg once weekly", "value": "−12.1", "unit": "%"}, {"measurement": "Observed KCCQ-CSS mean change from baseline", "setting": "[1]; week 36", "value": 15.0}, {"measurement": "Observed body weight (%) mean change from baseline", "setting": "[1]; week 44, 2.4 mg once weekly", "value": "−12.9", "unit": "%"}, {"measurement": "NYHA class from baseline to week 52: Improvement", "setting": "[1]; week 52, 2.4 mg once weekly", "value": 36.4, "unit": "%"}, {"measurement": "NYHA class from baseline to week 52: No change", "setting": "[1]; week 52, 2.4 mg once weekly", "value": 61.7, "unit": "%"}, {"measurement": "NYHA class from baseline to week 52: Worsening", "setting": "[1]; week 52, 2.4 mg once weekly", "value": 2.0, "unit": "%"}, {"measurement": "Observed body weight (%) mean change from baseline", "setting": "[1]; week 52, 2.4 mg once weekly", "value": "−13.9", "unit": "%"}, {"measurement": "Observed proportion improving ≥5 points from baseline in KCCQ-CSS", "setting": "[1]; week 52, 2.4 mg once weekly", "value": 75, "unit": "%"}, {"measurement": "Observed proportion improving ≥10 points from baseline in KCCQ-CSS", "setting": "[1]; week 52, 2.4 mg once weekly", "value": 63, "unit": "%"}, {"measurement": "Observed six minutes walk distance mean change from baseline", "setting": "[1]; week 52, 2.4 mg once weekly", "value": 23.5, "unit": "meters"}, {"measurement": "Observed KCCQ-CSS mean change from baseline", "setting": "[1]; week 52", "value": 16.8}, {"measurement": "Body weight (%) change from baseline to week 52, Treatment difference vs. placebo", "setting": "[1]; [4]", "value": "−10.7", "unit": "%"}, {"measurement": "Improvement of ≥5 points in KCCQ-CSS, Treatment Odds ratio vs. placebo", "setting": "[1]; [4]", "value": 1.88}, {"measurement": "Improvement of ≥10 points in KCCQ-CSS, Treatment Odds ratio vs. placebo", "setting": "[1]; [4]", "value": 2.10}, {"measurement": "KCCQ-CSS change from baseline to week 52, Treatment difference vs. placebo", "setting": "[1]; [4]", "value": 7.8, "unit": "score"}, {"measurement": "Six minutes walk distance change from baseline to week 52, Treatment difference vs. placebo", "setting": "[1]; [4]", "value": 20.3, "unit": "meters"}, {"measurement": "Body weight (%) change from baseline to week 52, Treatment difference vs. placebo", "setting": "[1]; [5]", "value": "significantly larger body weight loss"}, {"measurement": "KCCQ-CSS change from baseline to week 52, Treatment difference vs. placebo", "setting": "[1]; [5]", "value": "significantly larger improvement in KCCQ-CSS"}, {"measurement": "Six minutes walk distance change from baseline to week 52, Treatment difference vs. placebo", "setting": "[1]; [5]", "value": "significantly larger improvement in six minutes walk distance"}, {"measurement": "Body weight (%) change from baseline to week 52, Estimate", "setting": "[1]; [6]", "value": "−13.3", "unit": "%"}, {"measurement": "KCCQ-CSS change from baseline to week 52, Estimate", "setting": "[1]; [6]", "value": 16.6, "unit": "score"}, {"measurement": "Six minutes walk distance change from baseline to week 52, Estimate", "setting": "[1]; [6]", "value": 21.5, "unit": "meters"}, {"measurement": "Hospitalisation for heart failure, hazard ratio (95% confidence interval)", "setting": "[2]", "value": "1.11 (0.77−1.61)"}]}
